Experimental data as given in patent US10682371B2, “Small molecule conjugates specifically activated in tumor microenvironment for targeting and use thereof” (priority 2014, dated 2020).
Read-outs that look alike come from different tables or passages of the source.

Tests used:
tumor CD8+ T cells = assay type: in vivo, C57 mice
Summary of the method: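 Flow cytometric ratio of CD8⁺ to CD45⁺ cells in dissociated tumour. Cell suspensions were labelled with CD45-PE and CD8-FITC for 1 h at room temperature, then washed twice in phosphate buffer with 1% fetal bovine serum.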

D121 lung tumor cells = assay type: in vivo, C57 mice; conditions: for Treatment effects on C57 mice, in words: compared to the control group and the other treatment groups
Summary of the method: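 Endpoint is tumor inhibition rate from tumor size (mm^3) after weekly drug treatment for 4 weeks, begun once s.c. tumors from 10^6 live D121 cells reached 0.3-0.4 cm. Before challenge, C57 mice received three i.p. doses of 5×10^5 irradiated D121 cells, two weeks apart, or saline.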

[1] = system: Human non-small cell lung cancer A549 tumor tissue homogenate; assay type: biochemical; conditions: for Activation ratio (%) in homogenates from different tumor tissues: Human non-small cell lung cancer A549
Protocol: (§1) At 37 °C, sample compounds were added into 100 μg acidized tumor tissue homogenates (pH6.0) in a concentration of 1 mg/ml.
(§2) […], sample compounds were added into 100 μg acidized tumor tissue homogenates (pH6.0) in a concentration of 1 mg/ml.
(§3) At 37 °C, sample compounds were added into 100 μg acidized tumor tissue homogenates in a concentration of 1 mg/ml.
(§4) In the experiments, at 37 °C, compounds were added into proteases in 100 μg acidized tumor tissue homogenates in a concentration of 1 mg/ml. […] Meanwhile certain compounds produced in the screening were compared and their activation efficiency in same tissue was analyzed.
(§5) At 37° C., compounds were added into proteases in 100 μg acidized tumor tissue homogenates in a concentration of 1 mg/ml.

[2] = system: Human prostate cancer PC-3 tumor tissue homogenate; assay type: biochemical; conditions: for Activation ratio (%) in homogenates from different tumor tissues: Human prostate cancer PC-3
Protocol: as §1, §2, §3, §4, §5

[3] = system: Human liver cancer Hepg2 tumor tissue homogenate; assay type: biochemical; conditions: for Activation ratio (%) in homogenates from different tumor tissues: Human liver cancer Hepg2
Protocol: as §1, §2, §3, §4, §5

[4] = system: Human ovarian cancer SK-OV-3 tumor tissue homogenate; assay type: biochemical; conditions: for Activation ratio (%) in homogenates from different tumor tissues: Human ovarian cancer SK-OV-3
Protocol: as §1, §2, §3, §4, §5

[5] = system: Human renal cancer OS-RC-2 tumor tissue homogenate; assay type: biochemical; conditions: for Activation ratio (%) in homogenates from different tumor tissues: Human renal cancer OS-RC-2
Protocol: as §1, §2, §3, §4, §5

[6] = system: Human colon cancer HT-29 tumor tissue homogenate; assay type: biochemical; conditions: Human colon cancer HT-29
Protocol: as §1, §2, §3, §4, §5

[7] = system: Human pancreatic cancer Panc-1 tumor tissue homogenate; assay type: biochemical; conditions: for Activation ratio (%) in homogenates from different tumor tissues: Human pancreatic cancer Panc-1
Protocol: as §1, §2, §3, §4, §5

[8] = system: Human chronic leukemia K562 tumor tissue homogenate; assay type: biochemical; conditions: for Activation ratio (%) in homogenates from different tumor tissues: Human chronic leukemia K562
Protocol: as §1, §2, §3, §4, §5

[9] = system: Human breast cancer MDA-MB435 tumor tissue homogenate; assay type: biochemical; conditions: for Activation ratio (%) in homogenates from different tumor tissues: Human breast cancer MDA-MB435
Protocol: as §1
(§6) At 37 °C, sample compounds were added into 100 μg acidized human breast cancer (MDA-MB435) tumor tissue homogenates (pH6.0) in a concentration of 1 mg/ml.
as §2, §6, §3, §4, §5

[10] = Table 27, CD8 positive cells in CD45 positive cells of tumor, flow cytometry, immunized C57 mice, D121
[11] = Table 27, immunized C57 mice, D121 lung tumor, drugs weekly for 4 weeks, Day 18
[12] = 1 mg/ml, acidized homogenate pH6.0, Paclitaxel release by HPLC
[13] = D121 immunized C57 mice, drugs weekly for 4 weeks, Day 18 (Example 23)
[14] = 100 μg acidized homogenate pH6.0, 1 mg/ml, 37°
[15] = ratio of CD8 positive cells in CD45 positive cells of tumor, flow cytometry, drugs 13.2 μmol/kg, PDL1 antibody 5 μg/kg
[16] = Day 18, immunized C57 mice, drugs 13.2 μmol/kg, PDL1 antibody 5 μg/kg, weekly for 4 weeks

Compound	CD8: CD45 (%) (tumor CD8+ T cells; [10])	Size of tumor (mm^3) Day 18 (D121 lung tumor cells; [11]) [mm^3]	inhibitory rate on tumor % Day 18 (D121 lung tumor cells; [11]) [%]	Treatment effects on C57 mice, in words (D121 lung tumor cells)	Activation ratio (%) in homogenates from different tumor tissues [1, 12] [%]	Activation ratio (%) in homogenates from different tumor tissues [2, 12] [%]	Activation ratio (%) in homogenates from different tumor tissues [3, 12] [%]	Activation ratio (%) in homogenates from different tumor tissues [4, 12] [%]	Activation ratio (%) in homogenates from different tumor tissues [5, 12] [%]	Activation ratio (%) in homogenates from different tumor tissues [6, 12] [%]	Activation ratio (%) in homogenates from different tumor tissues [7, 12] [%]	Activation ratio (%) in homogenates from different tumor tissues [8, 12] [%]	Activation ratio (%) in homogenates from different tumor tissues [9, 12] [%]	CD8: CD45 (%) (tumor CD8+ T cells; [15])	Size of tumor (mm^3) Day 18 (D121 lung tumor cells; [16]) [mm^3]	inhibitory rate on tumor % Day 18 (D121 lung tumor cells; [16]) [%]	also measured
COCCOCCOCCOCCOCCOCC(=O)NCCCC[C@H](NC(=O)COCCOCCOCCOCCOCCOC)C(=O)N[C@H](C)C(=O)N[C@H](C)C(=O)N[C@H](CC(N)=O)C(=O)Nc1ccc(COC(=O)OC(C(=O)OC2C[C@@]3(O)[C@@H](OC(=O)c4ccccc4)[C@H]4[C@](C)(C(=O)[C@H](OC(C)=O)C(=C2C)C3(C)C)[C@@H](O)CC2OC[C@]24OC(C)=O)[C@@H](NC(=O)c2ccccc2)c2ccccc2)cc1 (stereo partly shown) [Compound A2]	19.4	375.727 ± 247.3	77.74	greatly improved	92.4	101.4	87.6	88.6	94.5	92.9	93.8	76.3	94.4				
COCCOCC(=O)NCCCC[C@H](NC(=O)COCCOC)C(=O)N[C@H](C)C(=O)N[C@H](C)C(=O)N[C@H](CC(N)=O)C(=O)Nc1ccc(COC(=O)OC(C(=O)OC2C[C@@]3(O)[C@@H](OC(=O)c4ccccc4)[C@H]4[C@](C)(C(=O)[C@H](OC(C)=O)C(=C2C)C3(C)C)[C@@H](O)CC2OC[C@]24OC(C)=O)[C@@H](NC(=O)c2ccccc2)c2ccccc2)cc1 (stereo partly shown) [Compound A1]	20.4	261.36 ± 178.3	84.52	greatly improved	89.5	100.3	98.3	91.4	89.2	82.4	97.8	67.7	95.6				Effect together with PDL1-antibody in promoting immunization and treatment, in words (D121 lung tumor cells; combination with PDL1-antibody): excellent synergistic effect; activation efficiency (%) ([9]; Table 24, acidized human breast cancer (MDA-MB435) tumor tissue homogenates pH6.0, 1 mg/ml, Paclitaxel release by HPLC): 95.1%
COCCOCCOCCOCCOCCOCC(=O)N[C@H](C)C(=O)N[C@H](C)C(=O)N[C@H](CC(N)=O)C(=O)Nc1ccc(COC(=O)OC(C(=O)OC2C[C@@]3(O)[C@@H](OC(=O)c4ccccc4)[C@H]4[C@](C)(C(=O)[C@H](OC(C)=O)C(=C2C)C3(C)C)[C@@H](O)CC2OC[C@]24OC(C)=O)[C@@H](NC(=O)c2ccccc2)c2ccccc2)cc1 (stereo partly shown) [S2′]				greatly improved													CD8: CD45 (%) (tumor CD8+ T cells; D121 immunized C57 mice (Example 23), CD8 positive cells in CD45 positive cells of tumor): 18.1%; Size of tumor (mm^3) Day 18 (D121 lung tumor cells; [13]): 331.57 ± 114.74 mm^3; inhibitory rate on tumor % Day 18 (D121 lung tumor cells; [13]): 78.9%; Activation ratio (%) in homogenates from different tumor tissues [1, 14]: 89.4%; Activation ratio (%) in homogenates from different tumor tissues [2, 14]: 98.4%; Activation ratio (%) in homogenates from different tumor tissues [3, 14]: 84.6%; Activation ratio (%) in homogenates from different tumor tissues [4, 14]: 84.6%; Activation ratio (%) in homogenates from different tumor tissues [5, 14]: 91.5%; Activation ratio (%) in homogenates from different tumor tissues [6, 14]: 89.9%; Activation ratio (%) in homogenates from different tumor tissues [7, 14]: 93.8%; Activation ratio (%) in homogenates from different tumor tissues [8, 14]: 73.3%; Activation ratio (%) in homogenates from different tumor tissues [9, 14]: 91.4%
COc1cccc2c1C(=O)c1c(O)c3c(c(O)c1C2=O)C[C@@](O)(C(C)=O)C[C@@H]3O[C@H]1C[C@H](NC(=O)OCc2ccc(NC(=O)[C@H](CC(N)=O)NC(=O)[C@H](C)NC(=O)[C@H](C)NC(=O)CCCCCN3C(=O)C=CC3=O)cc2)[C@H](O)[C@H](C)O1 [Compound S5, 4-N—(N—(N—(N-(6-maleimidocaproyl)-L-alanyl)-L-alanyl)-L-asparaginyl)-amino benzyl alcohol-daunorubicin-carbamate]				greatly improved													CD8: CD45 (%) (tumor CD8+ T cells; D121 immunized C57 mice, 13.2 μmol/kg, ratio of CD8 positive cells in CD45 positive cells of tumor): 17.4%; Size of tumor (mm^3) Day 18 (D121 lung tumor cells; D121 immunized C57 mice, 13.2 μmol/kg weekly, PDL1 antibody 5 μg/kg where combined, Day 18): 379.75 ± 125.64 mm^3; Activation Efficiencies (%) ([1]; Human non-small cell lung cancer A549 tumor tissue homogenate (30 μg/ml), 1 mg/ml compound): 96.7%; Activation Efficiencies (%) ([2]; Human prostate cancer PC-3 tumor tissue homogenate (30 μg/ml), 1 mg/ml compound): 97.3%; Activation Efficiencies (%) ([3]; Human liver cancer Hepg2 tumor tissue homogenate (30 μg/ml), 1 mg/ml compound): 67.3%; Activation Efficiencies (%) ([4]; Human ovarian cancer SK-OV-3 tumor tissue homogenate (30 μg/ml), 1 mg/ml compound): 97.4%; Activation Efficiencies (%) ([5]; Human renal cancer OS-RC-2 tumor tissue homogenate (30 μg/ml), 1 mg/ml compound): 98.3%; Activation Efficiencies (%) ([7]; Human pancreatic cancer Panc-1 tumor tissue homogenate (30 μg/ml), 1 mg/ml compound): 97.4%; Activation Efficiencies (%) ([8]; Human chronic leukemia K562 tumor tissue homogenate (30 μg/ml), 1 mg/ml compound): 73.5%; Activation Efficiencies (%) ([9]; Human breast cancer MDA-MB435 tumor tissue homogenate (30 μg/ml), 1 mg/ml compound): 96.7%
CO[C@@]12[C@H](COC(N)=O)C3=C(C(=O)C(C)=C(N)C3=O)N1C[C@@H]1N[C@@H]12 [mitomycin, reference compound]														6.7	1210.28 ± 368.45	28.62	
COCCOCCOCCOCCOCCOCC(=O)N[C@H](C)C(=O)N[C@H](C)C(=O)N[C@H](CC(N)=O)C(=O)Nc1ccc(COC(=O)N2[C@H]3[C@@H]2CN2C4=C(C(=O)C(N)=C(C)C4=O)[C@H](COC(N)=O)[C@]32OC)cc1 [Compound E2]				greatly improved										19.7	331.57 ± 124.45	83.87	Activation ratio (%) in homogenates from different tumor tissues ([1]; 37° C., 1 mg/ml): 96.4%; Activation ratio (%) in homogenates from different tumor tissues ([2]; 37° C., 1 mg/ml): 86.4%; Activation ratio (%) in homogenates from different tumor tissues ([3]; 37° C., 1 mg/ml): 94.8%; Activation ratio (%) in homogenates from different tumor tissues ([4]; 37° C., 1 mg/ml): 97.6%; Activation ratio (%) in homogenates from different tumor tissues ([5]; 37° C., 1 mg/ml): 94.5%; Activation ratio (%) in homogenates from different tumor tissues ([6]; 37° C., 1 mg/ml): 96.1%; Activation ratio (%) in homogenates from different tumor tissues ([7]; 37° C., 1 mg/ml): 84.6%; Activation ratio (%) in homogenates from different tumor tissues ([9]; 37° C., 1 mg/ml): 90.6%
